Reference: patent US10941160B2, “Bromodomain inhibitors” (CELGENE QUANTICEL RESEARCH, INC., priority 2013, dated 2021)
Read-outs that look alike come from different tables or passages of the source. Values belong to the compound of their own block, whether it stands above or below them.

Assays:
[1] = system: Raji, human Burkitts lymphoma cells; assay: Cell-MTS cellular proliferation assay, Raji; type: cell-based
Procedure: (§1) The Cell-MTS assay is a 7-day plate-based colorimetric assay which quantifies the amount of newly generated NADH in the presence or absence of test compound. The NADH level is used for the quantification of cancer cell proliferation.
(§2) Established cancer cell lines with a variety of driving mutations were obtained from American Type Culture Collection (ATCC) and routinely passaged according to ATCC protocols. For routine assay, these cells were seeded at densities which enabled ˜90% confluence after 7 days of culture. Raji, human Burkitts lymphoma cells, (cMYC) were seeded at 15,000 cells per 96-well. HL-60, human proleukemia cells, (NRAS, p16, p53, c-Myc amplified) were seeded at 5,000 cells per 96-well. NCI-H460, human non-small cell lung cancer cells, (KRAS, PIK3CA, STLK11, p16) were seeded at 3,000 cells per 96-well 24 hr after plating, cells received an 11-point dilution of test compound with final concentration ranges from 100 μM to 2.0 nM. […] At the end of this incubation period, 80 μL of media is removed and 20 μL of CellTiter 96® AQueous Non-Radioactive Cell Proliferation Assay soln (Promega) was added. The cells were incubated until the OD490 was >0.6. IC50 values were calculated using the IDBS XLtit software package and include background subtracted OD490 values and normalization to DMSO controls. Cellular proliferation IC50 values were uploaded and archived using the Chem Biography Platform.

[2] = system: HL-60, human proleukemia cells; assay: Cell-MTS cellular proliferation assay, HL-60; type: cell-based
Procedure: as §1, §2

BRD4(BD1) = BRD4(BD1) (Homo sapiens (Human), UniProt O60885); assay: In vitro enzyme inhibition assay (BRD4 AlphaScreen, H4-tetraacetyl peptide); type: binding
Procedure: His-tagged BRD4 was cloned, expressed and purified to homogeneity. […] BRD4 binding and inhibition was assessed by monitoring the interaction of biotinylated H4-tetraacetyl peptide (AnaSpec, H4K5/8/12/16(Ac), biotin-labeled) with the target using the AlphaScreen technology (Life Technologies). […] After 20 min incubation at room temp, Alpha streptavidin donor beads and Nickel Chelate acceptor beads were added to a final concentration of 5 μg/mL.
The ability of the compounds disclosed herein to inhibit BRD4 activity was quantified and the respective IC50 value was determined.

[3] = system: NCI-H460, human non-small cell lung cancer cells; assay: Cell-MTS cellular proliferation assay, NCI-H460; type: cell-based
Procedure: as §1, §2

[4] = in vitro enzyme inhibition assay, class symbols, read-out: BRD4 IC50

Compound: CCNS(=O)(=O)c1cccc(-c2cn(C)c(=O)c3ccc(F)cc23)c1 [Example 49, N-ethyl-3-(6-fluoro-2-methyl-1-oxoisoquinolin-4yl) benzenesulfonamide]
IC50 ([1]; Homo sapiens, Raji, 168 h, read-out: Raji IC50 (μM)): 0.5 to 5 µM
IC50 ([2]; Homo sapiens, HL-60, 168 h, read-out: HL-60 IC50 (μM)): 0.5 to 5 µM
IC50 (BRD4(BD1)): 500 to 5000 nM

IC50 ([1]; Homo sapiens, Raji, Cell-MTS proliferation, 168 hr, read-out: Raji IC50): > 5 µM
IC50 ([2]; Homo sapiens, HL-60, Cell-MTS proliferation, 168 hr, read-out: HL-60 IC50): 0.5 to 5 µM
IC50 ([3]; Homo sapiens, NCI-H460, 168 hr): > 5000 nM
Compound: COc1ccc(-c2cn(C)c(=O)c3cnccc23)cc1S(=O)(=O)NCc1ccccc1 [Example 54, N-benzyl-2-methoxy-5-(2-methyl-1-oxo-2,7-naphthyridin-4-yl) benzenesulfonamide]

Compound: Cn1cc(-c2cccc(S(N)(=O)=O)c2)c2ccc(F)cc2c1=O [Example 61, 3-(7-fluoro-2-methyl-1-oxoisoquinolin-4-yl) benzenesulfonamide]
IC50 ([1]; Cell-MTS proliferation, 168 hr, read-out: Raji IC50): 0.5 to 5 µM
IC50 ([2]; Cell-MTS proliferation, 168 hr, read-out: HL-60 IC50): 0.5 to 5 µM
IC50 (BRD4(BD1); in vitro enzyme inhibition assay, read-out: BRD4 IC50): < 500 nM

IC50 ([1]; Homo sapiens, Raji, Cell-MTS proliferation, 168 hr, class symbols, read-out: Raji IC50): < 0.5 µM
IC50 ([2]; Homo sapiens, HL-60, Cell-MTS proliferation, 168 hr, class symbols, read-out: HL-60 IC50): < 0.5 µM
IC50 (BRD4(BD1); [4]): < 500 nM
IC50 ([3]; Homo sapiens, NCI-H460, 168 hr, class symbols): > 5000 nM
Compound: Cn1cc(-c2cc(S(C)(=O)=O)ncc2OCC2CC2)c2ccc(F)cc2c1=O [Example 203, 4-[5-(cyclopropylmethoxy)-2-methylsulfonylpyridin-4-yl]-7-fluoro-2-methylisoquinolin-1-one]

IC50 (BRD4(BD1); [4]): < 500 nM
Compound: Cn1cc(-c2cc(OS(N)(=O)=O)ccc2OCC2CC2)c2ccccc2c1=O [Example 214, [4-(cyclopropylmethoxy)-3-(2-methyl-1-oxoisoquinolin-4-yl)phenyl] sulfamate]

IC50 (BRD4(BD1); [4]): < 500 nM
Compound: Cc1cc(-c2cc(OS(N)(=O)=O)ccc2OCC2CC2)cn(C)c1=O [Example 215, [4-(cyclopropylmethoxy)-3-(1,5-dimethyl-6-oxopyridin-3-yl)phenyl] sulfamate]

Compound: N-[5-(cyclopropylmethoxy)-4-(7-fluoro-2-methyl-1-oxoisoquinolin-4-yl) pyrimidin-2-yl]methanesulfonamide [Example 158]
IC50 ([1]; Cell-MTS proliferation, 168 hr, class symbols, read-out: Raji IC50): < 0.5 µM
IC50 ([2]; Cell-MTS proliferation, 168 hr, class symbols, read-out: HL-60 IC50): < 0.5 µM
IC50 (BRD4(BD1); read-out: BRD4 IC50): < 500 nM
IC50 ([3]; 168 hr, class symbols): > 5000 nM
